Values quoted from earlier work, collected in patent US20100323044A1, “ABNORMAL PROTEIN REMOVING METHOD” (FANCL CORPORATION, priority 2004, published 2010).

Settings: assumed, J Nutr 134 (2004); broken down by intestinal bacteria into soyasapogenol B, then absorbed

absorption in the human intestines: not absorbed directly
Structure (SMILES): C[C@@H]1O[C@@H](O[C@H]2[C@H](O[C@H]3[C@H](O[C@H]4CC[C@@]5(C)[C@@H](CC[C@]6(C)[C@@H]5CC=C5[C@@H]7CC(C)(C)C[C@@H](O)[C@]7(C)CC[C@]56C)[C@@]4(C)CO)O[C@H](C(=O)O)[C@@H](O)[C@@H]3O)O[C@H](CO)[C@H](O)[C@@H]2O)[C@H](O)[C@H](O)[C@H]1O [soyasaponin I]
